Measured values as given in article PMC9919513, “A Practical Approach to Bicyclic Carbamoyl Pyridones with Application to the Synthesis of HIV-1 Integrase Strand Transfer Inhibitors” (Molecules, 2023).
Read-outs that look alike come from different tables or passages of the source.

Assays:
[1] = test system: HIV-1 vectors that carry WT IN; assay: Single-round HIV-1 replication antiviral assay, wild-type IN; assay type: cell-based; details: for EC50: Human immunodeficiency virus 1, HOS, 48 h, read-out: EC50, antiviral potency, WT IN, VSV-g-pseudotyped HIV-1 luciferase vector with WT IN, HOS cells, 48 h
Protocol: The bicyclic metal chelating carbamoyl pyridone moiety is common to second-generation tricyclic INSTIs (3, 4, and 5, Figure 1). Analogs of the current study are simplified analogs that lack a third ring. […] The halogen substitution pattern of the benzylamide moiety can affect inhibitory potencies of INSTIs. We determined the antiviral potencies of our compounds in single round HIV-1 replication assays using viral constructs with wild-type IN [31]. Cytotoxicities were determined as previously described. […] In general, the potencies of bicyclic analogs 6 having an unsaturated bond at the C4 position were insensitive to differences in N-methyl substituents. […] Analogs 6g and 6h represent simplified analogs of DTG (3) and CAB (5), respectively, in which the third ring (C-ring) is opened and having doble bond in B-ring, but lacking α-methyl stereochemistry.
Human embryonic kidney cell culture cell line 293 was acquired from the American Type Culture Collection (ATCC). The human osteosarcoma cell line, HOS, was obtained from Dr. Richard Schwartz (Michigan State University, East Lansing, MI, USA) and grown in Dulbecco’s modified Eagle’s medium (Invitrogen, Carlsbad, CA, USA) supplemented with 5% (v/v) fetal bovine serum, 5% newborn calf serum, and penicillin (50 units/mL) plus streptomycin (50 µg/mL; Quality Biological, Gaithersburg, MD, USA). The transfection vector, pNLNgoMIVR-ΔLUC was made from pNLNgoMIVR-ΔEnv.HSA by removing the HSA reporter gene and replacing it with a luciferase reporter gene between the NotI and XhoI restriction sites. To produce the new IN mutant S230N used in this study, the IN open reading frame was removed from pNLNgoMIVR-ΔENV.LUC by digestion with KpnI and SalI, and the resulting fragment was inserted between the KpnI and SalI sites of pBluescript KS+. Using that construct as the wild-type template, we prepared the following HIV-1 IN mutant S230N using the QuikChange II XL site-directed mutagenesis kit (Agilent Technologies, Santa Clara, CA, USA) protocol. The following sense oligonucleotides were used with matching cognate antisense oligonucleotides (not shown) (Integrated DNA Technologies, Coralville, IA, USA) in the mutagenesis: S230N 5′-[…]-3′. The DNA sequence of the IN mutant S230N construct was verified independently by DNA sequence determination. The mutated IN coding sequences from pBluescript KS+ were then subcloned into pNLNgoMIVR-ΔEnv.LUC (between the KpnI and SalI sites) to produce mutant HIV-1 constructs, which were also checked by DNA sequencing. […]. On the day prior to transfection, 293 cells were plated on 100 mm diameter dishes at a density of 1.5 × 10^6 cells per plate. Next, 293 cells were transfected with 16 µg of pNLNgoMIVR^-ΔLUC and 4 µg of pHCMV-g (obtained from Dr. Jane Burns, University of California, San Diego) using the calcium phosphate method. At approximately 6 h after the calcium phosphate precipitate was added, 293 cells were washed twice with phosphate-buffered saline (PBS) and incubated with fresh media for 48 h. The virus-containing supernatants were then harvested, clarified by low-speed centrifugation, filtrated, and diluted for preparation in antiviral infection assays. On the day prior to the screen, HOS cells were seeded in a 96-well luminescence cell culture plate at a density of 4000 cells in 100 µL per well. On the day of the screen for cellular cytotoxicity determination, cells were treated with compounds from a concentration range of 250 µM to 0.05 µM and then incubated at 37 °C for 48 h. On the day of the screen for antiviral activity infection assays, cells were treated with compounds from a concentration range of 5 µM to 0.0001 µM using 11 serial dilutions and then incubated at 37 °C for 3 h. After compound incorporation and activation in the cell, 100 µL of virus-stock (WT or mutant) diluted to achieve a luciferase signal between 0.2 and 1.5 Relative Luciferase Units (RLUs) was added to each well and further incubated at 37 °C for 48 h. […]

[2] = test system: HIV-1 vectors bearing the S230N IN mutant; assay: Single-round HIV-1 replication antiviral assay, S230N IN mutant; assay type: cell-based
Source text: To further evaluate the antiviral activities of select compounds, we determined their EC50 values against the IN mutant S230N, which has been selected in vitro against an early Merck INSTI L810,830, a prototype for naphthyridine analogs.
(§1) Human embryonic kidney cell culture cell line 293 was acquired from the American Type Culture Collection (ATCC). The human osteosarcoma cell line, HOS, was obtained from Dr. Richard Schwartz (Michigan State University, East Lansing, MI, USA) and grown in Dulbecco’s modified Eagle’s medium (Invitrogen, Carlsbad, CA, USA) supplemented with 5% (v/v) fetal bovine serum, 5% newborn calf serum, and penicillin (50 units/mL) plus streptomycin (50 µg/mL; Quality Biological, Gaithersburg, MD, USA). The transfection vector, pNLNgoMIVR-ΔLUC was made from pNLNgoMIVR-ΔEnv.HSA by removing the HSA reporter gene and replacing it with a luciferase reporter gene between the NotI and XhoI restriction sites. To produce the new IN mutant S230N used in this study, the IN open reading frame was removed from pNLNgoMIVR-ΔENV.LUC by digestion with KpnI and SalI, and the resulting fragment was inserted between the KpnI and SalI sites of pBluescript KS+. Using that construct as the wild-type template, we prepared the following HIV-1 IN mutant S230N using the QuikChange II XL site-directed mutagenesis kit (Agilent Technologies, Santa Clara, CA, USA) protocol. The following sense oligonucleotides were used with matching cognate antisense oligonucleotides (not shown) (Integrated DNA Technologies, Coralville, IA, USA) in the mutagenesis: S230N 5′-[…]-3′. The DNA sequence of the IN mutant S230N construct was verified independently by DNA sequence determination. The mutated IN coding sequences from pBluescript KS+ were then subcloned into pNLNgoMIVR-ΔEnv.LUC (between the KpnI and SalI sites) to produce mutant HIV-1 constructs, which were also checked by DNA sequencing. […]. On the day prior to transfection, 293 cells were plated on 100 mm diameter dishes at a density of 1.5 × 10^6 cells per plate. Next, 293 cells were transfected with 16 µg of pNLNgoMIVR^-ΔLUC and 4 µg of pHCMV-g (obtained from Dr. Jane Burns, University of California, San Diego) using the calcium phosphate method. At approximately 6 h after the calcium phosphate precipitate was added, 293 cells were washed twice with phosphate-buffered saline (PBS) and incubated with fresh media for 48 h. The virus-containing supernatants were then harvested, clarified by low-speed centrifugation, filtrated, and diluted for preparation in antiviral infection assays. On the day prior to the screen, HOS cells were seeded in a 96-well luminescence cell culture plate at a density of 4000 cells in 100 µL per well. On the day of the screen for cellular cytotoxicity determination, cells were treated with compounds from a concentration range of 250 µM to 0.05 µM and then incubated at 37 °C for 48 h. On the day of the screen for antiviral activity infection assays, cells were treated with compounds from a concentration range of 5 µM to 0.0001 µM using 11 serial dilutions and then incubated at 37 °C for 3 h. After compound incorporation and activation in the cell, 100 µL of virus-stock (WT or mutant) diluted to achieve a luciferase signal between 0.2 and 1.5 Relative Luciferase Units (RLUs) was added to each well and further incubated at 37 °C for 48 h. Cellular cytotoxicity was measured by using the ATP Lite Luminescence detection system and monitored by adding 50 µL of cell lysis buffer from the Luminescence ATP detection assay to each well followed by mixing at 700 rpm at room temperature for 5 min using a compact thermomixer. […]

[3] = test system: HIV-1 vectors bearing the S230N IN mutant; details: single round infection assays, read-out: EC50 against the S230N IN mutant; cited from earlier work
[4] = in vitro; assay type: cell-based; details: human, HOS cells, 48 h; read-out: CC50, cytotoxic concentration resulting in 50% reduction in the level of ATP
Protocol: as §1, with “thermomixer. After addition of 50 µL of reconstituted Luminescence ATP detection assay reagent to all wells except for the negative control/background wells, the plates were mixed at 700 rpm at room temperature for 5 min using a compact thermomixer, incubated at room temperature for 20 min to allow time for signal development, and finally, cytotoxicity was determined using the microplate reader. Infectivity was measured by using the Steady-lite plus luminescence reporter gene assay system (PerkinElmer, Waltham, MA, USA).” for “thermomixer.”

| Structure (SMILES) | Ratio of the antiviral potencies after and before hydrogenation (WT) ([1]; EC50 of saturated 7 over EC50 of unsaturated 6, WT IN) | EC50 [1] [nM] | Ratio of the antiviral potencies after and before hydrogenation (S230N) ([2]; EC50 of saturated 7 over EC50 of unsaturated 6, S230N IN) | EC50 ([2]; Human immunodeficiency virus 1, HOS, 48 h, read-out: EC50, antiviral potency, S230N IN mutant) [nM] | melting point [°C] | EC50 [3] [nM] | CC50 [4] [nM] |
| --- | --- | --- | --- | --- | --- | --- | --- |
| O=C(NCc1ccc(F)cc1F)c1cn2c(c(O)c1=O)C(=O)N(CCCCCO)CC2 [Compound 7d, N-(2,4-Difluorobenzyl)-9-hydroxy-2-(5-hydroxypentyl)-1,8-dioxo-1,3,4,8-tetrahydro-2H-pyrido [1,2-a]pyrazine-7-carboxamide] | 5.0 | 54.5 ± 3 | 6.29 | 97 | 201 to 207 |  |  |
| C[C@@H]1CCO[C@H]2Cn3cc(C(=O)NCc4ccc(F)cc4F)c(=O)c(O)c3C(=O)N12 [DTG, Dolutegravir, reference compound] |  | ~2 |  |  |  | 7.9 ± 1.3 |  |
| CC(C)CC(C)n1ccn2cc(C(=O)NCc3ccc(F)cc3F)c(=O)c(O)c2c1=O (stereo not shown) [Compound 6i, N-(2,4-Difluorobenzyl)-9-hydroxy-2-(4-methylpentan-2-yl)-1,8-dioxo-1,8-dihydro-2H-pyrido [1,2-a]pyrazine-7-carboxamide] |  | 4.2 ± 1 |  |  | 199 to 203 |  | > 250000 |
